These compounds were tested against Replicase polyprotein 1ab (Severe acute respiratory syndrome coronavirus, UniProt P0C6X7) (assay: SARS-CoV 3CL Protease Inhibition Assay). Conditions: pH 7; 25 °C.
Method: The effects of compound on enzyme activity were measured by using a fluorogenic peptide cleavage assay. Enhanced fluorescence caused by cleavage of the substrate peptide was monitored at 538 nm with excitation at 355 nm. The Ki measurements were performed at two fixed inhibitor concentrations and various substrate concentrations.

| SMILES | IC50 | Ki |
| --- | --- | --- |
| O=C(Nc1ccc([N+](=O)[O-])cc1Cl)c1cc(Cl)ccc1O [5-chloro-N-(2-chloro-4-nitrophenyl)-2-hydroxybenzamide] | > 50 µM |  |
| O=C(C[C@H](O)C(=O)N[C@@H](Cc1ccccc1)C(=O)Nc1ccc([N+](=O)[O-])cc1Cl)N[C@@H](Cc1ccccc1)C(=O)Nc1ccc([N+](=O)[O-])cc1Cl [(2S)-N,N'-bis[(1S)-1-[(2-chloro-4-nitrophenyl)carbamoyl]-2-phenylethyl]-2-hydroxybutanediamide] | 4 µM | 3.1 µM |
| Cc1cc(C(=O)N[C@H](C(=O)N[C@@H](Cc2ccccc2)C(=O)N[C@@H](Cc2ccccc2)C(=O)Nc2ccc([N+](=O)[O-])cc2Cl)C(C)C)[n-][o+]1 [(2S)-N-[(1S)-1-{[(1S)-1-[(2-chloro-4-nitrophenyl)carbamoyl]-2-phenylethyl]carbamoyl}-2-phenylethyl]-3-methyl-2-[(5-methyl-1,2-oxazol-3-yl)formamido]butanamide] | 7 µM | 2.9 µM |
| Cc1cc(C(=O)N[C@H](C(=O)N[C@@H](Cc2ccccc2)C(=O)N[C@H](C(=O)N[C@@H](Cc2ccccc2)C(=O)Nc2ccc([N+](=O)[O-])cc2Cl)C(C)O)C(C)C)no1 (stereo partly drawn) [N-[(5-methylisoxazol-3-yl)carbonyl]-L-valyl-L-phenylalanyl-L-threonyl-N-(2-chloro-4-nitrophenyl)-L-phenylalaninamide] | 5 µM | 1.61 µM |
| CC(C)C[C@H](NC(=O)[C@@H](NC(=O)OC(C)(C)C)C(C)C)C(=O)N[C@@H](Cc1ccccc1)C(=O)Nc1ccc([N+](=O)[O-])cc1Cl [tert-butyl N-[(1S)-1-{[(1S)-1-{[(1S)-1-[(2-chloro-4-nitrophenyl)carbamoyl]-2-phenylethyl]carbamoyl}-3-methylbutyl]carbamoyl}-2-methylpropyl]carbamate] | > 10 µM |  |
